The test system of series [1] is K. pneumoniae ATCC13883. Description: Checkerboard assay with rifampicin. Format: cell-based, Klebsiella pneumoniae. The method, then: (§1) All peptides were screened for antimicrobial activity against E. coli BW25113, E. coli ATCC25922, and E. coli W3110. A select group of the peptides was further tested against E. coli mcr-1, E. coli EQASmcr-1 (EQAS 2016 412016126), E. coli EQASmcr-2 (EQAS 2016 KP37), E. coli EQASmcr-3 (EQAS 2017 2013-SQ352), K. pneumoniae ATCC13883, P. aeruginosa ATCC27853, and A. baumannii ATCC17978. The antimicrobial assay was performed according to CLSI guidelines. Bacteria were plated out directly from their glycerol stocks on blood agar plates, incubated overnight at 37 °C, and then kept in the fridge. The blood agar plates were only used for 2 weeks and then replaced.
(§2) One colony from a blood agar plates was inoculated in Lysogeny Broth (LB) at 37 °C until a 0.5 optical density at 600 nm (OD600) was reached (compared to the sterility control of LB). The bacterial suspension was diluted in fresh LB to 2.0 × 10^6 CFU/mL. The serial dilutions were prepared in polypropylene microtiter plates: a stock of the test compounds was prepared with a 2x final concentration in LB. Moreover, 100 µL of the stock was added to the wells of the top row of which 50 µL was used for the serial dilution. The bottom row of each plate was used as the positive (50 µL of LB) and negative controls (100 µL of LB) (6 wells each). Furthermore, 50 µL of the 2.0 × 10^6 CFU/mL bacterial stock was added to each well except for the negative controls, adding up to a total volume of 100 µL per well. The plates were sealed with a breathable seal and incubated for 20 h at 37 °C and 600 rpm.
(§3) Two 96-well plates were required per compound. A serial dilution of the compound was performed on two plates from row A–G using with LB as medium. Row H was filled with 25 µL medium. On a separate plate a negative control (8 wells, 100 μL medium) was prepared. For all concentrations of antibiotic a specific stock was prepared. 25 µL medium was added to the 0 µg/mL antibiotic columns (plate I, column 1–3). Of each antibiotic stock 25 µL was added to three columns to obtain triplicates for every condition. Both plates contained 50 µL in each well to which 50 µL bacterial stock was added (see the protocol of the MIC assays) and the plates were sealed. After incubation for 20 h at 37 °C while shaking, the breathable seals were removed and the density of the bacterial suspensions measured at 600 nm (OD600) using a Tecan Spark plate reader. The OD600 values were transformed to a 2D gradient with the negative control as minimum and the positive control (wells G1, G2, and G3) as maximum in excel. The FICi was calculated using Equation (1) with a FICi ≤ 0.5 indicating synergy. FICi = (MSCa/MICa) + (MSCb/MICb),(1)
(§4) Calculation of the FICi: MSCa = concentration of the […] in combination with the antibiotic that results in the lowest FICi. MICa = MIC of the antibiotic without synergist (row G). MSCb = concentration of the synergist in combination with the antibiotic that results in the lowest FICi. MICb = MIC of the synergist itself (Column 1–3, plate I).

Series [2] deals with A. baumannii ATCC17978. Nature of the series: microbe, parasite or virus in culture. Format: cell-based, Acinetobacter baumannii. The method, then: as §1, §2, §3, §4
The test system of series [3] is E. coli ATCC25922. Format: cell-based, Escherichia coli. The note with it: rifampicin without synergist; E. coli ATCC25922. How it is done: as §1, §2, §3, §4
Series [4] concerns E. coli mcr-1. Format: cell-based, Escherichia coli. The note with it: rifampicin without synergist; E. coli mcr-1. The method, then:
as §1, §2, §3, §4

The test system of series [5] is P. aeruginosa ATCC27853. Nature of the series: Checkerboard assay with rifampicin. Format: cell-based, Pseudomonas aeruginosa. The method, then:
as §1, §2, §3, §4

Series [6] deals with E. coli BW25113. Description: microbe, parasite or virus in culture. Format: cell-based, Escherichia coli. How it is done: as §1, §2, §3, §4
In series [7] the test system is defibrinated sheep blood (red blood cells). Description: Hemolysis assay. Format: cell-based. The note with it: 200 µg/mL compound, 20 h incubation at 37 °C with defibrinated sheep blood, PBS 0.002% Tween20, absorbance 415 nm, relative to 0.1% Triton X-100; n=3 technical replicates. How it is done:
Defibrinated sheep blood (Thermo Fisher Scientific) and a phosphate-buffered saline (PBS) buffer containing 0.002% Tween20 were used in this assay. The red blood cells were washed with buffer followed by centrifugation (400 g for 15 min at 4 °C). The red blood cells were then normalized to obtain a positive control read-out around 2.5 at 415 nm to stay in the linear range with the maximum sensitivity. A serial dilution of the compounds (200–1.56 µg/mL, 75 µL) was prepared in a 96-well plate. Each plate contained a positive control (0.1% Triton X-100 final concentration, 75 µL) and the negative control (buffer, 75 µL). After addition of normalized blood cells (75 µL), the plates were incubated for 20 h at 37 °C at 500 rpm. The plates were centrifuged (800× g for 5 min at room temperature). For the next step flat-bottom polystyrene plates were prepared with 100 µL buffer in each well. Aliquots of 25 µL supernatant from the centrifuged plates were then transferred to their respective wells in the flat-bottom plate. Absorbance values where measured at 415 nm and corrected for background (negative control) and transformed to a percentage hemolysis relative to the positive control.

Series [8] concerns E. coli BW25113. Type of series: cell-based, Escherichia coli. The note with it: for MICpep: synergist alone, E. coli BW25113, from checkerboard with rifampicin; for MSCpep: synergist concentration in the combination with rifampicin giving the lowest FICi. The method, then: as §1, §2, §3, §4
The test system of series [9] is E. coli BW25113. Nature of the series: Checkerboard assay with erythromycin. Format: cell-based, Escherichia coli. The note with it: for MSCery: erythromycin concentration in the combination with the synergist giving the lowest FICi, E. coli BW25113; for MIC of the peptide (MICpep): synergist alone, from checkerboard with erythromycin; for MIC of the peptide (MICpep) / MSCpeptide, minimum synergistic concentration: E. coli BW25113, LB, 20 h 37 °C; for MSCpeptide, minimum synergistic concentration: synergist concentration in the combination with erythromycin giving the lowest FICi, OD600. How it is done: as §1, §2, §3, §4

This note sets out measurements from PMC8037310, “Thrombin-Derived Peptides Potentiate the Activity of Gram-Positive-Specific Antibiotics against Gram-Negative Bacteria” (Molecules, 2021).

Molecules are shown by their SMILES. Where “and” joins values, the source holds several entries; their conditions need not be identical. Identical values can stand only once. Like-named read-outs stand apart in the source and are kept apart here. Peptide text beside a SMILES is read from it. Where only a bound is given, the exact number is not on record here.

With `CO[C@H]1/C=C/O[C@@]2(C)Oc3c(C)c(O)c4c(O)c(c(/C=N/N5CCN(C)CC5)c(O)c4c3C2=O)NC(=O)/C(C)=C\C=C\[C@H](C)[C@H](O)[C@@H](C)[C@@H](O)[C@@H](C)[C@H](OC(C)=O)[C@@H]1C` [rifampicin, reference compound], the MIC in series [1] (Klebsiella pneumoniae, ATCC13883, read-out: MIC of rifampicin (MICrif)) came to 32 µg/mL; in series [2] (Acinetobacter baumannii, ATCC17978, read-out: MIC of rifampicin (MICrif)) it was 2 µg/mL; in series [5] (Pseudomonas aeruginosa, ATCC27853, read-out: MIC of rifampicin (MICrif)) it was 16 µg/mL. The “MIC of rifampicin (MICrif)” value in series [1] (rifampicin without synergist, K. pneumoniae ATCC13883) stood at 32 µg/mL; in series [2] (rifampicin without synergist, A. baumannii ATCC17978), 2 µg/mL; in series [5] (rifampicin without synergist, P. aeruginosa ATCC27853), 16 µg/mL. The MICrif was 4 µg/mL in series [3] and 12 µg/mL in [4].

Turning to `CN[C@H](CC(C)C)C(=O)N[C@H]1C(=O)N[C@@H](CC(N)=O)C(=O)N[C@H]2C(=O)N[C@H]3C(=O)N[C@H](C(=O)N[C@H](C(=O)O)c4cc(O)cc(O)c4-c4cc3ccc4O)[C@H](O)c3ccc(c(Cl)c3)Oc3cc2cc(c3O[C@@H]2O[C@H](CO)[C@@H](O)[C@H](O)[C@H]2O[C@H]2C[C@](C)(N)[C@H](O)[C@H](C)O2)Oc2ccc(cc2Cl)[C@H]1O` [vancomycin, reference compound], in series [6] (Escherichia coli, BW25113, read-out: MIC of vancomycin (MICvanco)), the MIC is greater than 200 µg/mL. In addition, in series [6] (antibiotic without synergist, E. coli BW25113), the “MIC of vancomycin (MICvanco)” value is greater than 200 µg/mL.

For the molecule `CC[C@H](C)[C@H](NC(=O)[C@@H](NC(=O)[C@H](CCCCN)NC(=O)[C@H](CCC(N)=O)NC(=O)[C@@H](NC(=O)[C@H](Cc1c[nH]c2ccccc12)NC(=O)[C@H](CCCCN)NC(=O)[C@H](CCCCN)NC(=O)[C@H](CC(C)C)NC(=O)[C@H](CCCNC(=N)N)NC(=O)[C@H](Cc1ccccc1)NC(=O)[C@H](C)N)[C@@H](C)CC)C(C)C)C(N)=O` [peptide 8] (H-AFRLKKWIQKVI-NH2), the Hemolysis in series [7] was 1.5% and 2%. Also, the FICi in [8] (BW25113, 20 h) amounted to 0.1406. The MICpep in [8] turned out to be 12.5 µg/mL. Also, the MSCpep in [8] (E. coli BW25113) amounted to 1.563 µg/mL. In addition, in [9], the MSCery amounted to 12.5 µg/mL; the “MIC of the peptide (MICpep)” value worked out at 12.5 µg/mL; the “MSCpeptide, minimum synergistic concentration” value was 1.563 µg/mL.

In the case of `CC[C@H](C)[C@H](NC(=O)[C@@H](NC(=O)[C@H](CCCCN)NC(=O)[C@H](CCC(N)=O)NC(=O)[C@@H](NC(=O)[C@H](Cc1c[nH]c2ccccc12)NC(=O)[C@H](CCCCN)NC(=O)[C@H](C)NC(=O)[C@H](CC(C)C)NC(=O)[C@H](CCCNC(=N)N)NC(=O)[C@H](Cc1ccccc1)NC(=O)[C@@H](N)C(C)C)[C@@H](C)CC)C(C)C)C(N)=O` [compound 12] (H-VFRLAKWIQKVI-NH2), the Hemolysis in [7] is 30.2% and 30%. The MICpep in [8] was found to be 25 µg/mL. The MSCpep in series [8] (E. coli BW25113) was 12.5 µg/mL. Also, the FICi in series [8] (with rifampicin vs E. coli BW25113, synergy defined as FICi ≤ 0.5) is listed as greater than 0.5. Also, in series [9], the MSCery is 1.563 µg/mL; the “MIC of the peptide (MICpep)” value is on record as 25 µg/mL; the “MSCpeptide, minimum synergistic concentration” value is recorded as 12.5 µg/mL. In addition, the FICi in series [9] (with erythromycin vs E. coli BW25113, synergy defined as FICi ≤ 0.5) was greater than 0.5.

With `CC[C@H](C)[C@H](NC(=O)[C@@H](NC(=O)[C@H](CCCCN)NC(=O)[C@H](CCC(N)=O)NC(=O)[C@@H](NC(=O)[C@H](Cc1c[nH]c2ccccc12)NC(=O)[C@H](CCCCN)NC(=O)[C@H](CCCCN)NC(=O)[C@H](C)NC(=O)[C@H](CCCNC(=N)N)NC(=O)[C@H](Cc1ccccc1)NC(=O)[C@@H](N)C(C)C)[C@@H](C)CC)C(C)C)C(N)=O` [compound 11] (H-VFRAKKWIQKVI-NH2), the Hemolysis in [7] is 1.1% and 1%. For the same molecule, the MSCrif in series [8] (rifampicin concentration in the combination giving the lowest FICi, E. coli BW25113) was 0.25 µg/mL. Besides, the MICpep in series [8] was determined as 25 µg/mL. The MSCpep in [8] (E. coli BW25113) was 1.563 µg/mL. Also, in series [9], the MSCery is 12.5 µg/mL; the “MIC of the peptide (MICpep)” value was found to be 200 µg/mL; the “MSCpeptide, minimum synergistic concentration” value was found to be 25 µg/mL.
